Literature values in patent US12285483B2 (priority 2020, dated 2025).

Conditions: pure solanesol, room temperature

For solanesol, the solubility in water is listed as “insoluble in water”.
